In patent publication US20050214279A1, “Methods for stimulating human leukocytes to kill bacteria, yeast and fungi in biofilms that have formed in/on prosthetic devices, catheters, tissues and organs in vivo” (priority 2003, published 2005):

System: human neutrophils
Assay: Neutrophil phagocytosis and killing of S. epidermidis in fibrin gels
Format: cell-based
Details: bacteria 10^5 to 2×10^8 CFU/ml, neutrophils 10^6 to 4×10^8/ml (data not shown)
Protocol: To facilitate processing for microscopy we used 50% autologous plasma to form gels (40 μl in volume). To increase the frequency of neutrophils and S. epidermidis interactions the gels contained 4μ 10^8 neutrophils/ml (pre-incubated in medium with or without 20 μM cytochalasin D for 15 min at room temperature), 2μ 10^8 CFU/ml S. epidermidis, and 20 μM cytochalasin D, where indicated. The gels were incubated for 60 min at 37° C., fixed with 2.5% glutaraldehyde at 4° C., and then with 1% OsO4, stained en block with 1% uranyl acetate, dehydrated, and embedded in Epon. Sections ˜[…] thick were cut, stained sequentially with lead citrate and uranyl acetate, and examined in a Phillips 1200 transmission electron microscope. […]
In stirred suspensions, neutrophils must phagocytose bacteria to kill them. […] Second, cytochalasin D, which facilitates neutrophil secretions, blocked both phagocytosis (as measured by electron microscopy), and killing of S. epidermidis in fibrin gels at all bacterial (10^5 to 2×10^8 CFU/ml) and neutrophil concentrations (10^6 to 4×10^8/ml) tested (data not shown). […]

C=C1[C@@H](C)[C@H]2[C@H](Cc3ccccc3)NC(=O)[C@]23[C@H](OC(C)=O)/C=C/[C@@](C)(O)C(=O)[C@@H](C)C/C=C/[C@H]3[C@@H]1O [cytochalasin D]
killing of S. epidermidis in fibrin gels: blocked
phagocytosis (as measured by electron microscopy): blocked
